“And” between values parts separate entries of the source, which are not always exact repeats. Equal entries are not always repeated. Where two headings read alike, the source gives them in different places.
Assays:
[1] = target: T1, hA2B receptors expressed in CHO cells (Homo sapiens, UniProt P29275); assay: cAMP assay hA2B CHO cells; type: cell-based; conditions: for Selectivity hA1/hA2B: ratio hA1 Ki / hA2B EC50; for Selectivity hA2A/hA2B: ratio hA2A Ki / hA2B EC50; for Selectivity hA3/hA2B: ratio hA3 IC50 / hA2B EC50; for EC50: stimulation of cAMP levels, hA2B CHO cells, mean ± s.e. mean
T1 construct: expressed in transfected cells; host or cells: CHO cells
T1 sequence (P29275 1-332): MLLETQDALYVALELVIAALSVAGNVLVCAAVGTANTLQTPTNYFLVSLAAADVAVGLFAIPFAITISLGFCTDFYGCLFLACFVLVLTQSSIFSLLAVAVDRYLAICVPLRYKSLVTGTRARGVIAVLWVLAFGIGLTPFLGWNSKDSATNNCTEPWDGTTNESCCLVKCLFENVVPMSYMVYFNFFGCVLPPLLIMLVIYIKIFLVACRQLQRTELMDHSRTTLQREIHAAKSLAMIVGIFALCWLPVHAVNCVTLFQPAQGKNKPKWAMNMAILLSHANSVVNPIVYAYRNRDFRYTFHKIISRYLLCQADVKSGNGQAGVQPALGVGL
Experimental: The effects of the tested compounds may be evaluated in functional assays measuring the stimulatory capability of the ligands to increase cAMP levels in hA2B receptors expressed in CHO cells. This may done as described by Pastorin et al. in “Pyrazolo[4,3-e]-1,2,4-triazolo[1,5-c]pyrimidine derivatives as adenosine receptor antagonists.
(§1) For cell preparation CHO cells transfected with human A2B or A3 receptors are washed with phosphate-buffered saline and diluted trypsin, and centrifuged for 10 min at 200 g. […] After the preincubation time at 37° C., the examined ligands (1 nM-10 μM) are added to the mixture and incubated for a further 5 min. The reaction is terminated by the addition of cold 6% trichloroacetic acid (TCA). The TCA suspension is centrifuged at 2000 g for 10 min at 4° C. and the supernatant is extracted four times with water saturated diethyl ether. […] Samples of cyclic AMP standard (0-10 pmoles) are added to each test tube containing the incubation buffer (trizma base 0.1 mM, aminophylline 8.0 mM, 2-mercaptoethanol 6.0 mM, pH 7.4) and [^3H]cyclic AMP in total volume of 0.5 mL. The binding protein previously incubated at 4° C. for 150 min, and after the addition of charcoal is centrifuged at 2000 g for 10 min. The clear supernatant is counted in a Beckman scintillation counter.

[2] = target: T2, hA2A receptors expressed in CHO cells (Homo sapiens, UniProt P29274); assay: [3H]CGS21680 binding hA2A CHO cells; conditions: [3H]-CGS 21680, hA2A CHO cell membranes, 180 min at 25° C.; mean ± s.e. mean
T2 construct: expressed in transfected cells; host or cells: CHO cells (stably transfected, per Klotz et al. 1998); membrane preparation
T2 sequence (P29274 whole entry): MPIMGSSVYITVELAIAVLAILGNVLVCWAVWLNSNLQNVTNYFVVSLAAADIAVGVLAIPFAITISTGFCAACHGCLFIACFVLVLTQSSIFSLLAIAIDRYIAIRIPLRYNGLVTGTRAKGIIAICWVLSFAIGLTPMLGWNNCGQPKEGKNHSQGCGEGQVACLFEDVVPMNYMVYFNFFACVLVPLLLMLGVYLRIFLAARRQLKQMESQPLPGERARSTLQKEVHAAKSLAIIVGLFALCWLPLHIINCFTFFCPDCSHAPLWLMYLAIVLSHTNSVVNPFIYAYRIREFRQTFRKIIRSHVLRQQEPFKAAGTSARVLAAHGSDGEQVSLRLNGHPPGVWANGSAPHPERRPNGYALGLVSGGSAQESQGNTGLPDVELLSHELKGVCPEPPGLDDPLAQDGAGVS
Experimental: (§2) The cells are grown adherently and maintained in Dulbecco's Modified Eagles Medium with nutrient mixture F12 (DMEM/F12) without nucleosides, containing 10% fetal calf serum, penicillin (100 U/mL), streptomycin (100 μg/mL), L-glutamine (2 mM) and Geneticin (G418, 0.2 mg/mL) at 37° C. in 5% CO2/95% air. […] For membrane preparation the culture medium is removed and the cells are washed with PBS and scraped off T75 flasks in ice-cold hypotonic buffer (5 mM Tris HCl, 2 mM EDTA, pH 7.4). The cell suspension is homogenized and centrifuged for 30 min at 100,000×g. The membrane pellet is re-suspended in 50 mM Tris HCl buffer pH 7.4 and incubated with 2 UI/mL of adenosine deaminase for 30 min at 37° C.
(§3) Binding of 1 nM [^3H]—CHA to hA1CHO cells (50 μg of protein/assay) is performed using 50 mM Tris HCl buffer pH 7.4 and at least 6-8 different concentrations of agonists studied for an incubation time of 150 min at 25° C. […] Non-specific binding is determined in the presence of 10 μM of CHA and is about 20% of the total binding. […] Filter bound radioactivity is measured by scintillation spectrometry after addition of 5 mL of Aquassure.
(§4) All experimental data are expressed as the mean±standard error of the mean (s.e. mean) of three or four independent experiments performed in duplicate.

[3] = target: T3, human A3 receptors in CHO cells (Homo sapiens, UniProt P0DMS8); assay: cAMP assay hA3 CHO cells; type: cell-based; conditions: cyclic AMP assay, mean ± s.e. mean
T3 construct: expressed in transfected cells; host or cells: CHO cells
T3 sequence (P0DMS8 1-318): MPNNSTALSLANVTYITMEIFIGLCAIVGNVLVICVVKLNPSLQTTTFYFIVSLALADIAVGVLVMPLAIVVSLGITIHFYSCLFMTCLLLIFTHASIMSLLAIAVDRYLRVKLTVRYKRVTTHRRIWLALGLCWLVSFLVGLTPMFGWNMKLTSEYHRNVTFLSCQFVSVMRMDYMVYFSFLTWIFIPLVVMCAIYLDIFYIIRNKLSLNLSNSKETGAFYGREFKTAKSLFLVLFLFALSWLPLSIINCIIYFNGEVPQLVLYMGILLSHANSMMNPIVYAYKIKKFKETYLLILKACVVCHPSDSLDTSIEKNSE
Experimental: as §1

[4] = target: T4, hA1 receptors expressed in CHO cells (Homo sapiens, UniProt P30542); assay: [3H]CHA binding hA1 CHO cells
T4 sequence (P30542 1-326): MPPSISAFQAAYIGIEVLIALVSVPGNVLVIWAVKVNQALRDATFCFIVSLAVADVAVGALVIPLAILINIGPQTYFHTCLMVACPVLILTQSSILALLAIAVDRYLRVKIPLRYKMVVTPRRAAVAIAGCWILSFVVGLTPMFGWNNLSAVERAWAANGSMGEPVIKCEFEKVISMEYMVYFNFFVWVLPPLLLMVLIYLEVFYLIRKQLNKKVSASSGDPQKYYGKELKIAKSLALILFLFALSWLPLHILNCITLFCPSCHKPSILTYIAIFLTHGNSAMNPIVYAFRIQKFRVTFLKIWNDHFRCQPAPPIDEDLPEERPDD
Experimental: as §2, §3, §4

[5] = read-out: [3H]CHA binding hA1 CHO cells Ki, 1 nM [3H]-CHA, hA1 CHO cell membranes, 150 min at 25° C., mean ± s.e. mean

melting point	Selectivity hA1/hA2B [1]	Selectivity hA2A/hA2B [1]	Selectivity hA3/hA2B [1]	EC50 [1]	Ki [2]	IC50 [3]	Ki [4, 5]	Ki [4]	Compound
154 to 155 °C	3.08	5.73	>4.40	227 ± 18 nM	1300 ± 50 nM	> 1000 nM	700 ± 25 nM	–	CCNC(=O)[C@H]1O[C@@H](n2cnc3c(NNC(=O)c4ccc(C)o4)ncnc32)[C@H](O)[C@@H]1O [Compound 14b, (2S, 3S, 4R, 5R)-3,4-Dihydroxy-5-{6-[N′-(5-methyl-furan-2-carbonyl)-hydrazino]-9H-purin-9-yl}-tetrahydrofuran-2-carboxylic acid ethylamide]
160 to 161 °C	>2.94	>2.94	>2.94	340 ± 35 nM	> 1000 nM	> 1000 nM	–	> 1000 nM	CCNC(=O)[C@H]1O[C@@H](n2cnc3c(NNC(=O)c4sccc4C)nc(Cl)nc32)[C@H](O)[C@@H]1O [Compound 23b]
153 to 154 °C	>3.66	>3.66	>3.66	273 ± 12 nM	> 1000 nM	> 1000 nM	–	> 1000 nM	CCNC(=O)[C@H]1O[C@@H](n2cnc3c(NNC(=O)c4ccc(C)s4)ncnc32)[C@H](O)[C@@H]1O [Compound 16b, (2S, 3S, 4R, 5R)-3,4-Dihydroxy-5-{6-[N′-(5-methyl-thiophene-2-carbonyl)-hydrazino]-9H-purin-9-yl}-tetrahydrofuran-2-carboxylic acid ethylamide]
169 to 170 °C	–	–	–	> 1000 nM	> 1000 nM	> 1000 nM	–	> 1000 nM	CCNC(=O)[C@H]1O[C@@H](n2cnc3c(NNC(=O)c4cc(-c5ccccc5)on4)nc(Cl)nc32)[C@H](O)[C@@H]1O [Compound 26b, (2S, 3S, 4R, 5R)-5-{2-Chloro-6-[N′-(5-phenyl-isoxazole-3-carbonyl)-hydrazino]-9H-purin-9-yl}-3,4-dihydroxy-tetrahydrofuran-2-carboxylic acid ethylamide]
156 °C	>5.71	>5.71	>5.71	175 ± 20 nM	> 1000 nM	> 1000 nM	–	> 1000 nM	CCNC(=O)[C@H]1O[C@@H](n2cnc3c(NNC(=O)c4ccc(C)s4)nc(Cl)nc32)[C@H](O)[C@@H]1O [Compound 19b, (2S, 3S, 4R, 5R)-5-{2-Chloro-6-[N′-(5-methyl-thiophene-2-carbonyl)-hydrazino]-9H-purin-9-yl}-3,4-dihydroxy-tetrahydrofuran-2-carboxylic acid ethylamide]
169 to 170 °C	–	–	–	> 1000 nM	> 1000 nM	> 1000 nM	–	> 1000 nM	CCNC(=O)[C@H]1O[C@@H](n2cnc3c(NNC(=O)c4nc([N+](=O)[O-])cn4C)ncnc32)[C@H](O)[C@@H]1O [Compound 15b, (2S, 3S, 4R, 5R)-3,4-Dihydroxy-5-{6-[N′-(1-methyl-4-nitro-1H-imidazole-2-carbonyl)-hydrazino]-9H-purin-9-yl}-tetrahydrofuran-2-carboxylic acid ethylamide]
171 °C	–	–	–	–	–	–	–	–	CCNC(=O)[C@H]1O[C@@H](n2cnc3c(NNC(=O)c4ccc(Br)o4)ncnc32)[C@H](O)[C@@H]1O [Compound 13b, (2S, 3S, 4R, 5R)-5-{6-[N′-(5-Bromo-furan-2-carbonyl)-hydrazino]-9H-purin-9-yl}-3,4-dihydroxy-tetrahydrofuran-2-carboxylic acid ethylamide]
182 to 183 °C	–	–	–	> 1000 nM	> 1000 nM	> 1000 nM	–	> 1000 nM	CCNC(=O)[C@H]1O[C@@H](n2cnc3c(NNC(=O)c4cc(C)on4)nc(Cl)nc32)[C@H](O)[C@@H]1O [Compound 25b, (2S, 3S, 4R, 5R)-5-{2-Chloro-6-[N′-(5-methyl-isoxazole-3-carbonyl)-hydrazino]-9H-purin-9-yl}-3,4-dihydroxy-tetrahydrofuran-2-carboxylic acid ethylamide]
249 to 250 °C	2.07	>2.22	>2.22	450 ± 29 nM	> 1000 nM	> 1000 nM	933 ± 76 nM	–	CCNC(=O)[C@H]1O[C@@H](n2cnc3c(NNC(=O)c4ccsc4)nc(Cl)nc32)[C@H](O)[C@@H]1O [Compound 21b, (2S, 3S, 4R, 5R)-5-{2-Chloro-6-[N′-(thiophene-3-carbonyl)-hydrazino]-9H-purin-9-yl}-3,4-dihydroxy-tetrahydrofuran-2-carboxylic acid ethylamide]
269 to 270 °C	>4.76	>4.76	>4.76	210 ± 13 nM	> 1000 nM	> 1000 nM	–	> 1000 nM	CCNC(=O)[C@H]1O[C@@H](n2cnc3c(NNC(=O)c4ccco4)nc(Cl)nc32)[C@H](O)[C@@H]1O [Compound 18b, (2S, 3S, 4R, 5R)-5-{2-Chloro-6-[N′-(furan-2-carbonyl)-hydrazino]-9H-purin-9-yl}-3,4-dihydroxy-tetrahydrofuran-2-carboxylic acid ethylamide]
253 to 254 °C	–	–	–	> 1000 nM	> 1000 nM	> 1000 nM	–	> 1000 nM	CCNC(=O)[C@H]1O[C@@H](n2cnc3c(NNC(=O)c4ccccc4)nc(Cl)nc32)[C@H](O)[C@@H]1O [Compound 17b, (2S, 3S, 4R, 5R)-5-[6{N′-Benzoyl-hydrazino)-2-chloro-9H-purin-9-yl}-3,4-dihydroxy-tetrahydrofuran-2-carboxylic acid ethylamide]
188 to 189 °C	–	–	–	> 1000 nM	> 1000 nM	> 1000 nM	–	> 1000 nM	CCNC(=O)[C@H]1O[C@@H](n2cnc3c(NNC(=O)c4ccc(Cl)cc4)ncnc32)[C@H](O)[C@@H]1O [Compound 10b, (2S, 3S, 4R, 5R)-5-{6-[N′-(4-Chlorobenzoyl)-hydrazino]-9H-purin-9-yl}-3,4-dihydroxy-tetrahydrofuran-2-carboxylic acid ethylamide]
174 to 175 °C and 173 to 174 °C	–	–	–	> 1000 nM	> 1000 nM	> 1000 nM	–	> 1000 nM	CCNC(=O)[C@H]1O[C@@H](n2cnc3c(NNC(=O)c4ccccc4)ncnc32)[C@H](O)[C@@H]1O [Compound 9b, (2S, 3S, 4R, 5R)-5-[6-(N′-Benzoyl-hydrazino)-9H-purin-9-yl]-3,4-dihydroxy-tetrahydrofuran-2 carboxylic acid ethylamide]

Source: patent US7691825B2, “Adenosine A2B receptor agonists” (King Pharmaceuticals Research and Development, Inc., priority 2006, dated 2010)
